Results from patent US20150283237A1, “CTLA-4 BLOCKADE WITH METRONOMIC CHEMOTHERAPY FOR THE TREATMENT OF CANCER” (priority 2014, published 2015).
Where a name gives a salt, the structure may show the parent alone.

Key:
[1] = mouse, in vivo
From the text: To assess the relative toxicity of the therapies, body weights of the mice over the course of the experiment was monitored, as in the previous studies (du Manoir et al., Clin Cancer Res., 2006, 12:904-16; Francia et al., Mol Cancer Ther., 2012, 11:680-89).
Mice were monitored twice weekly for tumor growth, as measured using Vernier calipers, and calculated using the formula (length×width)/2, and for fluctuations in body weight. Institutional guidelines were followed to determine when the experimental end points were reached. Results were also plotted as event-free survival (Kaplan-Meier analysis) over time, where the duration of event-free survival was defined as time to primary tumor progression beyond 1,200 mm3 or >15% weight loss, as in the previous study (du Manoir et al., Clin Cancer Res., 2006, 12, 904-16).

EMT-6/P tumors = experiment: Growth and event-free survival of subcutaneously implanted EMT-6/P tumors in BALB/c mice; type: in vivo, mouse; details: first experiment, FIG. 1A; s.c. EMT-6/P tumors in BALB/c mice, therapy from 50 mm3
Method: The combination of CTLA-4 blockade with metronomic chemotherapy regimens was evaluated. Murine EMT-6 breast tumor cells were subcutaneously implanted into syngeneic BALB/c mice (n=6-8/group) and therapies on the established tumors were evaluated. Murine CTLA-4 blockade was achieved using anti-mouse CD152 (CTLA-4), clone 9H10, injected on day 1 (100 μg/mouse) and on day 6 (35 μg/mouse) of therapy. Anti-CTLA-4 therapy was administered alone or combined with metronomic regimens. These included: (a) bolus (150 mg/kg, i.p.) CTX followed by metronomic CTX (20 mg/kg/day, p.o.), (b) metronomic CTX, and (c) sequential gemcitabine therapy (160 mg/kg every 3 days, i.p.) given when the tumors relapsed after the anti-CTLA-4 therapy.
Anti-CTLA-4 therapy combined with bolus plus low-dose CTX. To evaluate whether metronomic CTX regimens could be combined effectively with an anti-CTLA-4 treatment, a combination regimen was tested on subcutaneously implanted EMT-6/P tumors (FIG. 1A). For the chemotherapy component, a bolus with low dose CTX protocol consisting of a bolus of CTX (given on day 1 as a 150 mg/kg, i.p. injection) plus low-dose CTX (20 mg/kg/day, p.o., from day 1) was used. […]
Mice were monitored twice weekly for tumor growth, as measured using Vernier calipers, and calculated using the formula (length×width)/2, and for fluctuations in body weight. […]

SMILES | body weight change / toxicity [1] | impact of therapy on tumor growth (EMT-6/P tumors)
Nc1ccn([C@@H]2O[C@H](CO)[C@@H](O)C2(F)F)c(=O)n1 [gemcitabine, Gemcitabine hydrochloride] | slight weight drop | 
O=P1(N(CCCl)CCCl)NCCCO1 (centres unmarked) [bolus with low dose CTX, Cyclophosphamide] |  | minimal reduction in tumor growth
